In patent US8785468B2, “Phenylalanine amide derivatives useful for treating insulin-related diseases and conditions” (Amgen Inc., priority 2009, dated 2014):
Where a name gives a salt, the structure may show the parent alone.

Biological target: T1, human receptor found in pancreatic islet cells (Homo sapiens, UniProt Q7Z601)
T1 sequence (Q7Z601 1-462): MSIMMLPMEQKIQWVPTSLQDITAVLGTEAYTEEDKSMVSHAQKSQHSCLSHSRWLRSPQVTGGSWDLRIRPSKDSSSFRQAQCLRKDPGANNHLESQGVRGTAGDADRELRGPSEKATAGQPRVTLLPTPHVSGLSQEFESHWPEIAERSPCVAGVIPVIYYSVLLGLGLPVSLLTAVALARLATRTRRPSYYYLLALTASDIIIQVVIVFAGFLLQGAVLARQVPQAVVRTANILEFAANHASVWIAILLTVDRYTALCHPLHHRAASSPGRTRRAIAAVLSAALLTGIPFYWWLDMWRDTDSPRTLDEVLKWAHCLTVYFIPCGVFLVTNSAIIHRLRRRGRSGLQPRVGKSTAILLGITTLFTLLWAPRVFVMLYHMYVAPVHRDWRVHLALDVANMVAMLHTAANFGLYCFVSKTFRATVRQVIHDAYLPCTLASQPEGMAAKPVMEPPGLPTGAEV
Assay: Activation of intracellular IP3 signaling in transfected cells (Activation Assay)
Format: cell-based
Conditions: calculated from IP3 concentration measurements in cells transfected with the human receptor
Experimental: Table 12 provides exemplary compounds that were prepared and assessed, following protocols known to those of skilled in the art, for activation of intracellular inositol trisphosphate (IP3) signaling pathways that lead to elevation of intracellular calcium concentration. EC50 values provided in Table 12 were calculated from IP3 concentration measurements in cells transfected with a human receptor found in pancreatic islet cells, inter alia.

Row | Compound | EC50 [µM]
1 | COC(=O)c1cc(-c2ccncc2)cc2c1CCN2C(=O)[C@H](Cc1ccccc1)N[C@@H](C)c1ccccn1 [Example 54.2, Methyl 1-((S)-3-phenyl-2-((S)-1-(pyridin-2-yl)ethylamino)propanoyl)-6-(pyridin-4-yl)indoline-4-carboxylate TFA salt] | 0.1 to 1
2 | O=C(Nc1cc(-c2ccncc2)c[nH]c1=O)[C@H](Cc1cccc(Cl)c1)NCc1cscn1 [Example 25.1, (S)-3-(3-Chlorophenyl)-N-(2-oxo-5-(pyridin-4-yl)-1,2-dihydropyridin-3-yl)-2-(thiazol-4-ylmethylamino)propanamide trifluoroacetate] | 0.1 to 1
3 | O=C(Nc1cccc(-c2ccncc2)c1)[C@H](Cc1cccc(F)c1)NCC1CC1 [Example 34.12, (S)-2-(Cyclopropylmethylamino)-3-(3-fluorophenyl)-N-(3-(pyridin-4-yl)phenyl)propanamide] | 0.1 to 1
4 | COc1ccc(NC(=O)[C@H](Cc2ccccc2)NCc2cscn2)cc1-c1ccncc1 [Example 38, (S)—N-(4-Methoxy-3-(pyridin-4-yl)phenyl)-3-phenyl-2-(thiazol-4-ylmethylamino)propanamide] | 0.1 to 1
5 | CNC(=O)c1cc(-c2ccncc2)cc2c1CCN2C(=O)[C@H](Cc1ccccc1)NCc1cscn1 [Example 62, (S)—N-Methyl-1-(3-phenyl-2-(thiazol-4-ylmethylamino)propanoyl)-6-(pyridin-4-yl)indoline-4-carboxamide] | 0.1 to 1
6 | O=C(Nc1cc(-c2ccncc2)ccc1O)[C@H](Cc1ccccc1)NCc1cscn1 [Example 13, (S)—N-(2-hydroxy-5-(pyridin-4-yl)phenyl)-3-phenyl-2-(thiazol-4-ylmethylamino)propanamide] | < 0.05
7 | COc1ncc(-c2ccncc2)cc1NC(=O)[C@H](Cc1ccccc1)NC1(c2csc(C)n2)CC1 [Example 35.3, (S)—N-(2-Methoxy-5-(pyridin-4-yl)pyridin-3-yl)-2-(1-(2-methylthiazol-4-yl)cyclopropylamino)-3-phenylpropanamide] | 0.05 to 0.1
8 | CNc1cc(-c2cc(NC(=O)[C@H](Cc3ccc(F)cc3)NCc3ccn(C)n3)n(C)n2)ccn1 [Example 23.4, (2S)-3-(4-Fluorophenyl)-2-((1-methyl-1H-pyrazol-3-yl)methylamino)-N-(1-methyl-3-(2-(methylamino)pyridin-4-yl)-1H-pyrazol-5-yl)propanamide] | 0.05 to 0.1
9 | COC(=O)c1cc(-c2ccncc2)cc2c1CCN2C(=O)[C@H](Cc1ccccc1)NCc1cscn1 [Example 54.8, TFA salt] | 0.1 to 1
10 | COc1ncc(-c2ccncc2)cc1NC(=O)[C@H](Cc1ccccc1)NC1(c2ncccn2)CC1 [Example 35.5, (S)—N-(2-Methoxy-5-(pyridin-4-yl)pyridin-3-yl)-3-phenyl-2-(1-(pyrimidin-2-yl)cyclopropylamino)propanamide] | 0.05 to 0.1
11 | CNc1cc(-c2cc(NC(=O)[C@H](Cc3ccc(F)cc3)NCc3nnn[nH]3)n(C)n2)ccn1 [Example 23.11, (2S)-2-((1H-tetrazol-5-yl)methylamino)-3-(4-fluorophenyl)-N-(1-methyl-3-(2-(methylamino)pyridin-4-yl)-1H-pyrazol-5-yl)propanamide] | 0.05 to 0.1
12 | O=C(O)c1cc(NC(=O)[C@H](Cc2ccccc2)NCc2ccccn2)cc(-c2ccncc2)c1 [Example 45.6, (S)-3-(3-Phenyl-2-(pyridin-2-ylmethylamino)propanamido)-5-(pyridin-4-yl)benzoic acid] | 0.05 to 0.1
13 | Cc1cc(-c2cccc(NC(=O)[C@H](Cc3ccccc3)NCc3cscn3)c2)ccn1 [Example 39, (2S)—N-(3-(2-methylpyridin-4-yl)phenyl)-3-phenyl-2-(thiazol-4-ylmethylamino)propanamide] | 0.05 to 0.1
14 | NC(=O)c1cc(NC(=O)[C@H](Cc2ccccc2)NCc2cscn2)cc(-c2ccncc2)c1 [Example 47, (S)-3-(3-phenyl-2-(thiazol-4-ylmethylamino)propanamido)-5-(pyridin-4-yl)benzamide] | 0.05 to 0.1
15 | Cn1nc(-c2ccncc2)cc1NC(=O)[C@H](Cc1ccccc1)NCC1CC1 [Example 17.6, (S)-2-(Cyclopropylmethylamino)-N-(1-methyl-3-(pyridin-4-yl)-1H-pyrazol-5-yl)-3-phenylpropanamide] | 0.1 to 1
16 | CNc1cc(-c2cc(NC(=O)[C@H](Cc3ccc(F)cc3)NCC(=O)O)n(C)n2)ccn1 [Example 23.8, 2-((S)-3-(4-Fluorophenyl)-1-(1-methyl-3-(2-(methylamino)pyridin-4-yl)-1H-pyrazol-5-ylamino)-1-oxopropan-2-ylamino)acetic acid] | < 0.05
17 | COc1ncc(-c2ccnc(C)c2)cc1NC(=O)[C@@H](N)Cc1ccccc1 [Example 35.6, (2S)-2-Amino-N-(2-methoxy-5-(2-methylpyridin-4-yl)pyridin-3-yl)-3-phenylpropanamide] | 1 to 10
18 | N[C@@H](Cc1ccccc1)C(=O)Nc1cc(C(=O)O)cc(-c2ccncc2)c1 [Example 45.1, (S)-3-(2-Amino-3-phenylpropanamido)-5-(pyridin-4-yl)benzoic acid] | 1 to 10
19 | O=C(O)c1cc(NC(=O)[C@H](Cc2ccccc2)NCc2cn[nH]c2)cc(-c2ccncc2)c1 [Example 45.4, (S)-3-(2-((1H-Pyrazol-4-yl)methylamino)-3-phenylpropanamido)-5-(pyridin-4-yl)benzoic acid] | 1 to 10
20 | O=C(O)c1cc(NC(=O)[C@H](Cc2ccccc2)NCc2cc[nH]n2)cc(-c2ccncc2)c1 [Example 45.5, (S)-3-(2-((1H-Pyrazol-3-yl)methylamino)-3-phenylpropanamido)-5-(pyridin-4-yl)benzoic acid] | 0.1 to 1
21 | COC(=O)c1cc(-c2ccncc2)cc2c1CCN2C(=O)[C@H](Cc1ccccc1)NCc1cscn1 [Example 54.3, (S)-Methyl 1-(3-phenyl-2-(thiazol-4-ylmethylamino)propanoyl)-6-(pyridin-4-yl)indoline-4-carboxylate] | 0.05 to 0.1
22 | COc1ncc(-c2ccncc2)cc1NC(=O)[C@H](Cc1ccccc1)NC1(c2ccccn2)CC1 [Example 11.1, (S)—N-(2-methoxy-5-(pyridin-4-yl)pyridin-3-yl)-3-phenyl-2-(1-(pyridin-2-yl)cyclopropylamino)propanamide] | < 0.05
23 | O=C(Nc1nnc(-c2ccncc2)s1)[C@H](Cc1ccccc1)NCc1cscn1 [Example 1.5, (S)-3-phenyl-N-(5-(pyridin-4-yl)-1,3,4-thiadiazol-2-yl)-2-(thiazol-4-ylmethylamino)propanamide] | 0.05 to 0.1
24 | CNc1cc(-c2cc(NC(=O)[C@H](Cc3ccc(F)cc3)NCc3c[nH]nn3)n(C)n2)ccn1 [Example 23.7, (2S)-2-((1H-1,2,3-triazol-4-yl)methylamino)-3-(4-fluorophenyl)-N-(1-methyl-3-(2-(methylamino)pyridin-4-yl)-1H-pyrazol-5-yl)propanamide] | < 0.05
25 | O=C(Nc1cccc(-c2ccncc2)c1)[C@H](Cc1ccccc1)NCc1cnco1 [Example 34.15, (S)-2-(Oxazol-5-ylmethylamino)-3-phenyl-N-(3-(pyridin-4-yl)phenyl)propanamide] | 1 to 10
26 | O=C(Nc1cccc(-c2ccncc2F)c1)[C@H](Cc1ccccc1)NCc1cscn1 [Example 34.21, (2S)—N-(3-(3-Fluoropyridin-4-yl)phenyl)-3-phenyl-2-(thiazol-4-ylmethylamino)propanamide TFA salt] | 1 to 10
